Test results from ChEMBL document CHEMBL1201862, “PubChem BioAssay data set” (2004).
Calls of active or inactive are those of the source.

Tests used:
[1] = cells; format: functional
[2] = NIH-3T3 fibroblast cytotoxicity, dose response, cytotoxicity control, cell-based, fluorescence, Alamar Blue, secondary assay (AID 2327); format: functional;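 note: NIH-3T3 mouse fibroblasts cultured with fluconazole at 8 µg/mL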
[3] = C. albicans growth with fluconazole, confirmation, fluorescence, retest (AID 2467); format: functional, cell-based
[4] = HEp-2 cell cytotoxicity, dose response, cytotoxicity control for RSV inhibitor project, HTS (AID 2410); format: functional; details: human respiratory syncytial virus
[5] = control 3'UTR Renilla luciferase suppression, dose response, counter-screen for Shn3 inhibitor project, cell-based, Clone20-Shn3RL, cherry-picked (AID 624133); format: functional
[6] = molecular target: FAD-linked sulfhydryl oxidase ALR (Homo sapiens, UniProt P55789); assay: inhibitors of human ALR sulfhydryl oxidase, dose response, biochemical, H2O2 detection, luminescence, cherry-pick (AID 493248)
Chain of FAD-linked sulfhydryl oxidase ALR (P55789 whole entry): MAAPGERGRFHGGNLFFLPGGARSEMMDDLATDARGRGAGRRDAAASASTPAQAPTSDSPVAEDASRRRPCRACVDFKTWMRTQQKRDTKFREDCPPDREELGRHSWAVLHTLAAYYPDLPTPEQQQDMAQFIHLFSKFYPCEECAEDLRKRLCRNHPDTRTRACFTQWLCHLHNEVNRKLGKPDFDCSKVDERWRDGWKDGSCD

[7] = Luminescence Cell-Based Dose Confirmation HTS to Identify Inhibitors of Platelet Dense Granule Release. [Related pubchem assays: 1663 (Primary HTS), 1678 (Summary of Project)]; format: functional
[8] = molecular target: Luciferin 4-monooxygenase (Photinus pyralis, UniProt P08659); assay: firefly luciferase enzyme inhibitors, dose response, biochemical, luminescence (AID 1891)
Chain of Luciferin 4-monooxygenase (P08659 whole entry): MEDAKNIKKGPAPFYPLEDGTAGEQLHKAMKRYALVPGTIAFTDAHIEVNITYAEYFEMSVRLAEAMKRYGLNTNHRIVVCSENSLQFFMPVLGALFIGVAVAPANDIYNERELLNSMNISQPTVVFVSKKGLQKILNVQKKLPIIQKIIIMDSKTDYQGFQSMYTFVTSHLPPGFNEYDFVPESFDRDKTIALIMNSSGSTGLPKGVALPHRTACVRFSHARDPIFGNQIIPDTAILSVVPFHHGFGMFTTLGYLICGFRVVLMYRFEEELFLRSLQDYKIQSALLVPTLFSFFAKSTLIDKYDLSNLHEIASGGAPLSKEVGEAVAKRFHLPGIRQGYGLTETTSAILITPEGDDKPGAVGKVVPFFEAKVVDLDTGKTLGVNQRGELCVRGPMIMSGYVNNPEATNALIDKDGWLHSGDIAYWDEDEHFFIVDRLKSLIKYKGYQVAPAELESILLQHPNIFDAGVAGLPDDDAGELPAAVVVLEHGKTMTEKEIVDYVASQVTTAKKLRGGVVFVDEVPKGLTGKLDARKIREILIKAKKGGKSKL

[9] = molecular target: T1, Heat shock factor protein 1 (Mus musculus, UniProt P38532); assay: HSF1 potentiators in luciferase reporter cells, confirmation, cell-based, NIH3T3, luminescence, dose retest (AID 435004); format: functional;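 note: stress induced by proteasome inhibitor MG132 added 30 min after compound; luciferase reporter driven by HSF1 response element in NIH3T3 cells; actives raise luminescence as potentiators of the MG132 stress response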
T1 sequence (P38532 whole entry): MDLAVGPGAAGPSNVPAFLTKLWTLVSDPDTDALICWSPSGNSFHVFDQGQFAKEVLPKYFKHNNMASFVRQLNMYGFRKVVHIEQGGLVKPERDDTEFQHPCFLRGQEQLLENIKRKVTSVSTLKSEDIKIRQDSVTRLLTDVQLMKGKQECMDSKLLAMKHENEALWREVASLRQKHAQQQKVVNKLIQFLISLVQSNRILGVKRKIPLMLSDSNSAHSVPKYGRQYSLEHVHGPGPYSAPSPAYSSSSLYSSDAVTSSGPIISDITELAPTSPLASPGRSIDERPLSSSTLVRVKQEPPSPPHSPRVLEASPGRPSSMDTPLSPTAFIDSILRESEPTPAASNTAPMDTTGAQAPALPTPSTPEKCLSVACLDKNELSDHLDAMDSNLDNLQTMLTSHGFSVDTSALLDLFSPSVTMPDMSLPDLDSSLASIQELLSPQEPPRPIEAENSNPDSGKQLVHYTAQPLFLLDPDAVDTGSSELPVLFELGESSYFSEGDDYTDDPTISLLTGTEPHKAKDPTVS

[10] = cytotoxicity toward NIH3T3 fibroblasts, dose response, counter-screen, cell-based, ATP luminescence, mouse fibroblasts (AID 2010); format: functional;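 note: cells exposed to compound for about 90 hours before reading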
[11] = inhibitors of intracellular T. cruzi replication, confirmation, NIH3T3 host cells, beta-gal luminescence (AID 2044); format: functional, cell-based;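 note: intracellular parasites grown in NIH/3T3 mouse fibroblasts as host cells; luminescent beta-galactosidase reporter signal from transgenic T. cruzi replicating inside host cells; inhibitors lower the luminescence signal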
[12] = MC4R antagonists, dose response, counter-screen for LGR2 antagonist project, cell-based, plate reader, cherry pick (AID 743444); format: functional;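 note: transfected HEK 293 cells stimulated with alpha-MSH peptide; potency of inhibitors of the alpha-MSH evoked signal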
[13] = A549 cell cytotoxicity, dose response, cytotoxicity control, plate reader, cherry-pick, antagonist series (AID 743412); format: functional, cell-based
[14] = LGR2 antagonists, dose response, cell-based, HEK293, CRE-luciferase reporter, cherry pick, set 2 (AID 743343); format: functional;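 note: transfected cells were stimulated with diluted bursicon conditioned medium after compound addition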
[15] = Shn3 3'UTR reporter inhibitors, dose response, cell-based, Clone20 osteoblasts, firefly luciferase, cherry-picked (AID 624132); format: functional;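 note: firefly luciferase luminescence from reporter carrying the Shn3 3'UTR in osteoblasts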
[16] = test system: BJ; assay: cytotoxicity toward BJ-TERT-LT-ST fibroblasts, dose response, cell-based, RAS-independent, luminescence (AID 1935); format: functional; details: Homo sapiens;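 note: BJ fibroblasts immortalized with TERT plus LT and ST oncogenes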
[17] = test system: BJ; assay: cells; format: functional, cell-based; details: Homo sapiens
[18] = test system: BJ; assay: cytotoxicity toward BJ-TERT fibroblasts, dose response, cell-based, RAS-independent, luminescence (AID 1933); format: functional; details: Homo sapiens
[19] = cytotoxicity toward DRD oncogenic fibroblasts, dose response, cell-based, non-viral oncogenic, luminescence (AID 1934); format: functional; details: Homo sapiens
[20] = microbe, parasite or virus in culture; format: functional; details: Mycobacterium tuberculosis
[21] = molecular target: T2, Replicative DNA helicase DnaB (Mycobacterium tuberculosis, UniProt P9WMR3); assay: DnaB intein splicing inhibitors, dose response, biochemical, cell-free fluorescence (AID 449749); format: functional
T2 sequence (P9WMR3 whole entry): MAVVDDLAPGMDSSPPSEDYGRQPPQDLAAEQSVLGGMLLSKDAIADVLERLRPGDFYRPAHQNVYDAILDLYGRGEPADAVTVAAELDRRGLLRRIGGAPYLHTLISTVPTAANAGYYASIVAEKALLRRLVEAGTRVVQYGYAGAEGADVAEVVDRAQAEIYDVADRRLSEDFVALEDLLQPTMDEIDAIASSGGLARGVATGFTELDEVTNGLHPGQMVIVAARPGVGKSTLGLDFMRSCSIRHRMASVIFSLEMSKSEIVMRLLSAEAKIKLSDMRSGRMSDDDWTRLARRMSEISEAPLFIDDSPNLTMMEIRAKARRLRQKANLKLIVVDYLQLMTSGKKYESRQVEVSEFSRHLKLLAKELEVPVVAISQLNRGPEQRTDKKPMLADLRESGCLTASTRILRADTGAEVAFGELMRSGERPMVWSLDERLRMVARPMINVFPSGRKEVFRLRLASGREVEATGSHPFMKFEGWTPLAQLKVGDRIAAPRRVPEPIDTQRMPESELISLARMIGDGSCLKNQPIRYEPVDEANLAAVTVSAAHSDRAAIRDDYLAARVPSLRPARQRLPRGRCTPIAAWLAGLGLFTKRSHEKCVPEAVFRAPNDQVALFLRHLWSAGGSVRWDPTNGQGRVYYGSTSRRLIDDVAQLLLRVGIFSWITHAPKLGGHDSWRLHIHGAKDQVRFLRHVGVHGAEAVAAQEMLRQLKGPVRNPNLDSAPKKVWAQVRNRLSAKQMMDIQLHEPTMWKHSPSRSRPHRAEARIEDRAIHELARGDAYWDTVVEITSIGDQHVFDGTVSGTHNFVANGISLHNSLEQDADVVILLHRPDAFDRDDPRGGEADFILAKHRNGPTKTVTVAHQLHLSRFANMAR

[22] = molecular target: T3, Protein RecA (Mycobacterium tuberculosis, UniProt P9WHJ3); assay: Fluorescence Cell-Free Homogeneous Dose Retest to Identify Inhibitors of RecA-Intein Splicing Activity. [Related pubchem assays (depositor defined):AID2097, AID2223, AID489010, AID492950]; format: functional
T3 sequence (P9WHJ3 whole entry): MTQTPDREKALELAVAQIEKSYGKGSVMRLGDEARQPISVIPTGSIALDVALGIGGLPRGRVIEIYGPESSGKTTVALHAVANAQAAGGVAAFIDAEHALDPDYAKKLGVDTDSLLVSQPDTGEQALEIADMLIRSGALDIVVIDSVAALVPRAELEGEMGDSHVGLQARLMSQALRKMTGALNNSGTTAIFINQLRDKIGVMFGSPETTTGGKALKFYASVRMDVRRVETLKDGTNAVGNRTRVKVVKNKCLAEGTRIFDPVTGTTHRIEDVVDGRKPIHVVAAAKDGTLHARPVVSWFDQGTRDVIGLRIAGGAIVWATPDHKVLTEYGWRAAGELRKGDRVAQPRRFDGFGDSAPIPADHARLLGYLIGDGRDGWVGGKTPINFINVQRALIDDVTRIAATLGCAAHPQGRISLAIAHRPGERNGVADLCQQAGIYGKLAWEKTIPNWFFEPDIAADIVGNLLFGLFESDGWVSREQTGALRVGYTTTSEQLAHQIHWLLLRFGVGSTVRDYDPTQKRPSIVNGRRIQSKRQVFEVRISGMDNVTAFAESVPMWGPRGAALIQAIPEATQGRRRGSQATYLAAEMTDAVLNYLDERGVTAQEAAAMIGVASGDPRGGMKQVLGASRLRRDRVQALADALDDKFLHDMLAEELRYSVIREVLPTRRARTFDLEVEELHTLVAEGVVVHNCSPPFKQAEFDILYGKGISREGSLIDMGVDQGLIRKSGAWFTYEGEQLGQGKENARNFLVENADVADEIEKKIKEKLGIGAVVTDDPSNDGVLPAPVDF

## Cc1cccc(C)c1NC(=O)COC(=O)CCc1c[nH]c2ccccc12
[1]
  IC50: 9.65 µM (active)

## CCCSc1cc(N)cc([N+](=O)[O-])c1
[2]
  EC50: > 160 µM (inconclusive)
[3]
  EC50: > 38 µM (not active)

## CCOc1ccc2nc(NN=C3C(=O)CC(C)(C)CC3=O)sc2c1
[2]
  EC50: > 160 µM (inactive)
[3]
  EC50: 9.16 µM (active)

## O=C(c1ccccc1)C1CN(Cc2ccccc2)CCC1(O)c1ccccc1 (stereo not given)
[1]
  IC50: 18.7 µM (active)

## O=C(CCS(=O)(=O)c1ccccc1)Nc1nc2c(s1)CCCC2
[4]
  CC50: 18.5 µM (active)
[5]
  AC50: 25.2 µM (active)

## O=C(O)c1[nH]c2ccccc2c1NS(=O)(=O)c1ccc(F)cc1
[6]
  AC50: 3.4 µM (active)

## Cc1ccc(-n2c(S)nnc2-c2cnccn2)cc1
[6]
  AC50: 6.42 µM (active)

## Nc1ccc(-c2nc3cc(N)ccc3o2)cc1
[7]
  EC50: 29.6 µM (active)
[6]
  AC50: 0.289 µM (active)
[8]
  EC50: > 112 µM (not active)

## C=CCn1c(S)nnc1-c1cc(-c2ccccc2)sc1N
[6]
  AC50: < 0.005 µM (active)
[9]
  EC50: > 260 µM (inactive)

## CCc1nnc(NC(=O)c2cc3ccccc3oc2=O)s1
[1]
  IC50: 0.81 µM (active)

## CCCCN(CCCC)S(=O)(=O)c1ccc(C(=O)Nc2nnc(COC)o2)cc1
[2]
  EC50: > 150 µM (inconclusive)
[3]
  EC50: 2.92 µM (active)

## CCOC(=O)Cc1csc(NC(=O)c2ccc3ncsc3c2)n1
[2]
  EC50: > 160 µM (inactive)
[3]
  EC50: > 38 µM (not active)

## O=C(Nc1ccc(Br)cc1)c1cc([N+](=O)[O-])cc([N+](=O)[O-])c1
[10]
  EC50: > 60 µM (not active)
[1]
  IC50: 11.4 µM (active)
[11]
  EC50: 190 nM (active)

## CC(C)C(=O)NCCSc1c[nH]c2ccccc12
[6]
  AC50: 3.12 µM (active)

## O=C(Nc1ccc(Cl)cc1)Nc1ccccc1C(=O)O
[7]
  EC50: 5.21 µM (active)
[12]
  AC50: 6.99 µM (active)
[8]
  EC50: < 0.088 µM (active)
[13]
  AC50: > 52 µM (inactive)
[14]
  AC50: 9.59 µM (active)

## Cc1ccc2nc(-c3ccc(NC(=O)COC(=O)c4ccco4)cc3)sc2c1
[4]
  CC50: 14.1 µM (active)
[12]
  AC50: 3.55 µM (active)
[14]
  AC50: 2.95 µM (active)

## COC(=O)c1ccc(N2CCN(S(=O)(=O)c3ccc(C)cc3)CC2)c([N+](=O)[O-])c1
[5]
  AC50: 2.95 µM (active)
[15]
  AC50: 3.88 µM (active)

## COC(=O)CCn1c(C)cc(C(=O)COc2ccccc2C(N)=O)c1C
[16]
  EC50: > 150 µM (inconclusive)
[4]
  CC50: 9.72 µM (active)
[17]
  EC50: > 150 µM (not active)
[18]
  EC50: 58.1 µM (active)
[19]
  EC50: > 150 µM (not active)
[1]
  IC50: 19.8 µM (active)

## CCOc1ccc(OCCSc2ccc(S(=O)(=O)N3CCN(C)CC3)cn2)cc1
[1]
  IC50: 19.3 µM (active)
[20]
  CC50: > 40 µM (active)

## CCOC(=O)c1cccc(NC2c3ccccc3C(=O)N2Cc2ccco2)c1 (stereo not given)
[5]
  AC50: 1.94 µM (active)
[15]
  AC50: 4.26 µM (active)

## Cc1oc2cc3oc(=O)c(CC(=O)N[C@@H](C)C(=O)NC(Cc4ccc(Cl)cc4)C(=O)O)c(C)c3cc2c1C (stereo not given in full)
[6]
  AC50: 94.3 µM (active)

## COC(=O)[C@@]12CCCCN1[C@H](c1ccc(SC3CCCCC3)c(OC)c1)[C@@H]1C(=O)N(C)C(=O)[C@@H]12
[5]
  AC50: 24.2 µM (active)
[15]
  AC50: 21.4 µM (active)

## Cc1ccc(NC2CCCN(C(=O)CCCN3CCCCC3=O)C2)cc1C (stereo not given)
[6]
  AC50: 8.32 µM (active)

## Cc1cccc(N2CC(C(=O)Nc3ccccc3N3CCCC3)CC2=O)c1C (stereo not given)
[6]
  AC50: 1.93 µM (active)

## CC(=O)Nc1ccc(S(=O)(=O)N[C@@H](C)C(=O)N2CCN(c3ccccn3)CC2)cc1
[6]
  AC50: 1.37 µM (active)

## CN(C)c1ncnc2c1C(c1ccccc1)C(C)(C)O2 (stereo not given)
[15]
  AC50: > 70 µM (inactive)

## Cc1ccc(/C=N/NC(=O)c2ccc3ccccc3c2)s1
[16]
  EC50: 62.1 µM (active)
[17]
  EC50: 96.4 µM (inconclusive)
[18]
  EC50: 4.71 µM (inconclusive)
[19]
  EC50: 18 µM (inconclusive)

## CC(C)(C)OC(=O)N/N=C\c1ccc(OC(=O)c2ccco2)cc1
[21]
  AC50: 34.5 µM (active)
[1]
  IC50: 39.5 µM (active)
[22]
  EC50: 16.2 µM (active)

## CN(C)c1ccc(C(=O)N/N=C/c2cc(Br)cc(Br)c2O)cc1
[2]
  EC50: 14 µM (active)
[3]
  EC50: > 38 µM (not active)

## O/N=C\c1ccc(-c2ccccc2)o1
[6]
  AC50: 6.45 µM (active)

## O=C(NCC1CCCO1)c1cc2c([nH]c3ccccc32)c(-c2ccc(F)cc2)n1 (stereo not given)
[16]
  EC50: > 150 µM (not active)
[17]
  EC50: 23.9 µM (active)
[18]
  EC50: 30.7 µM (active)
[19]
  EC50: 23.6 µM (active)
